For the experiment, the system named is colon of DSS colitis rats. The experiment in a line: Colonic morphology and colonic damage score (histology). It counts as in vivo, rat. The note with it: for Colonic damage score (CDS) of colon / Colon morphological structures: DSS colitis rats; for Colonic damage score (CDS) of colon: compared with DSS group, Fig. 1f; for colonic damage score: extent / colonic damage score: inflammation: grade 0-3; for colonic damage score: extent / colonic damage score: inflammation / colonic damage score: percent involvement / colonic damage score: crypt demage: individual rats, raw data; for colonic damage score: percent involvement: grade (1) 1-25% to (4) 76-100%; for colonic damage score: crypt demage: scale 0-4. Here is the method: Histology was prepared as previously described. The paraffin-embedded sections were cut at 4 μm thickness and stained with haematoxylin and eosin. Duodenum villus-plus-crypt height was imaged using an Olympus DP-71 digital camera, and quantification was performed using an image processing system. Approximately 12 longitudinally oriented villi were measured from each H&E-stained section to make n = 1. All measurements were performed in a blinded manner. Colonic damage score (CDS), was evaluated in a blinded manner in tissue sections based on a grade scale ranging from 0 to 3 to measure the amount and depth of inflammation. The amount of crypt damage or regeneration was measured in a scale of 0–4, as indicated in Dieleman et al.. These changes were also quantified in terms of the percentage involvement of the disease process: (1) 1–25%, (2) 26–50%, (3) 51–75% and (4) 76–100%. Each section was separately scored for each feature by establishing the product of the grade for that feature and the percentage involvement. The sum of the products of the four scores was the CDS for each rat.

Where [1] appears, read: 12.5 nmol/kg i.p. daily d1-6 (L).
The mark [2] stands for this setting: 100 nmol/kg i.p. daily d1-6 (H).

The text below walks through data of paper PMC5336612, “Therapeutic effects of different doses of polyethylene glycosylated porcine glucagon-like peptide-2 on ulcerative colitis in male rats” (BMC Gastroenterology, 2017).

Where “and” joins values, the source holds several entries; their conditions need not be identical. Identical values can stand only once. Where no end group is shown, it is not given here.

In the case of “polyethylene glycosylated porcine glucagon-like peptide-2 (HGDGSFSDEMNTVLDNLATRDFINWLLHTKITDSL; also: mono-PEGylated with mPEG5k-SPA, site not given here; UniProt P01274 146-180, looked up, variant A2G) [PEG–pGLP-2, mono-PEGylated p[Gly^2]GLP-2 conjugate prepared with mPEG5k-SPA; long-acting form of pGLP-2]”, under setting [1], the “Colonic damage score (CDS) of colon” value is reported as “significantly (p < 0.05) decreased”; the “colonic damage score: extent” value was 0.00 and 1.00; the “colonic damage score: inflammation” value is 1.00 and 2.00; the “colonic damage score: percent involvement” value was 0.00 and 1.00. Further, the “colonic damage score: crypt demage” value under setting [1] was 0.00 and 1.00. For the same substance, the Colon morphological structures result (25 nmol/kg i.p. daily d1-6 (M), Fig. 1d) was “almost normal with no damage”. Under “25 nmol/kg i.p. daily d1-6 (M)”, the “Colonic damage score (CDS) of colon” value is recorded as “significantly (p < 0.05) decreased”; the “colonic damage score: extent” value was 0.00 and 1.00; the “colonic damage score: inflammation” value is 2.00 and 1.00; the “colonic damage score: percent involvement” value was 0.00 and 1.00. The “colonic damage score: crypt demage” value (25 nmol/kg i.p. daily d1-6 (M)) was 0.00 and 3.00 and 1.00. Moreover, the Colon morphological structures result (100 nmol/kg i.p. daily d1-6 (H), Fig. 1e) was “almost normal with no damage”. Further, under setting [2], the “Colonic damage score (CDS) of colon” value was “significantly (p < 0.05) decreased”; the “colonic damage score: extent” value came to 0.00; the “colonic damage score: inflammation” value was 1.00 and 2.00; the “colonic damage score: percent involvement” value was 0.00 and 1.00. Also, the “colonic damage score: crypt demage” value under setting [2] was 0.00 and 3.00.
